Counter-ions that a name gives are not always drawn.
Assays:
HCT116 cells = experiment: Measurement of effect of inhibiting cancer cell proliferation (MTT); type: cell-based, human; conditions: for inhibition at 100 µM: HCT-116, 100 μM, read-out: Cell Growth Inhibition (%) at 100 μM
Method in brief: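 HCT116 cells (~5,000/well, DMEM with 10% FBS) treated 48 h with compound at 0.39–100 μM, metformin hydrochloride control at 0.1–25 mM. Viability by MTT (3 h, formazan in DMSO, A560) relative to untreated wells; GIC50 from the viability curve, also viability at 100 μM.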

AMPKα = experiment: Measurement of AMPK activation effect (AMPKα Thr172 phosphorylation immunoassay) in MCF7 cells; type: cell-based, human; conditions: 24 hours; for AMPK activation effect at 10 μM (%) / AMPK activation effect at 50 μM (%): relative to untreated cells; for AMPK activation effect AC150: concentration at which AMPK activation reached 150%
Method in brief: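 MCF7 cells in DMEM/10% FBS were treated 24 h with derivatives at 5, 10 and 50 μM (metformin hydrochloride control, 0.05–10 mM). AMPKα Thr172 phosphorylation was measured by immunoassay on 20 μg lysate. AC150 (concentration giving 150% activation) came from concentration–response curves, with activation also reported at fixed concentrations.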

[1] = Solubility in water of hydrochloride and acetate salts; type: physicochemical; conditions: room temperature
Protocol: The solubilities in water of the hydrochlorides prepared in Examples 26, 27, 32, 33, 48, 49, 53 and 54, and the solubilities in water of the acetates prepared in Examples 70 to 77, were compared.
The experimental conditions and methods are described, as follows.
1) 1 ml of distilled water is added to a container including 5 mg of salt at room temperature.
2) The resulting mixture is stirred for 10 minutes, and then kept at room temperature for 1 hour.
3) Undissolved residual salt is recovered and weighed.
4) The ratio of the amount of the recovered salt and the amount of the dissolved salt is calculated.
5) Operations 1) to 4) are repeatedly performed with increasing amount (i.e., 10, 15, 20, 25 and 30 mg) of salt.
The experimental procedures were performed for each of the hydrochlorides of Examples 26, 27, 32, 33, 48, 49, 53 and 54 and the acetates of Examples 70 to 77. The comparative solubilities obtained using the hydrochlorides of Examples 26, 27, 32, 33, 48, 49, 53 and 54 and the acetates of Examples 70 to 77 are listed in the following Table 1.

Snail = experiment: EMT inhibitory effect by inhibition of Snail expression (immunoblotting) in MCF7 cells; type: cell-based, human; conditions: MCF7, 48 hours, untreated control = 100%
Protocol: Cells undergoing EMT owing to various cytokines and growth factors can acquire motility and thus move a distance to form tumors in new tissues. Therefore, the metastasis of cancer cells can be inhibited by controlling expression of EMT-related transcription factors to hinder EMT. Based on these facts, the activities of biguanide derivatives that inhibit Snail expression, which is a transcription factor inducing EMT in the MCF7 cell line derived from human breast cancer, were measured and simple experimental methods are described, as follows.
MCF7 cells derived from human breast cancer (commercially available from Korean Cell Line Bank) were cultured in a DMEM medium supplemented with 10% (v/v) fetal bovine serum (commercially available from Gibco Life Technologies (US)), put into a 6-well plate so that the number of cultured cells could amount to approximately 5×10^5 cells per well, and then incubated in an incubator supplied with 5% CO2 (culture temperature: 37° C., pH: 7.0 to 7.4). The culture media were treated with phenformin hydrochloride and the compounds synthesized in the examples at contents of 1 μM and 10 μM, respectively, and then incubated for 48 hours. Metformin hydrochloride was used as the control, and the cells were treated with 1 mM and 10 mM metformin hydrochloride. After 48 hours, the cells were lysed in a cell lysis buffer containing 10 mM Tris HCl (pH7.4), 100 mM NaCl, 1 mM EDTA, 1 mM EGTA, 1 mM NaF, 20 mM Na4P2O7, 2 mM Na3VO4, 1% TritonX-100, 10% glycerol, 0.5% deoxycholate and 1 mM PMSF. Then, 25 μg of the cell lysate was electrophoresized in an SDS-PAGE gel, and then transferred to a […] membrane (commercially available from Amersham Life Science). The membrane reacted with rat monoclonal anti-human Snail (commercially available from Cell signaling Technology) or mouse monoclonal anti-β-actin (commercially available from Santa cruz Biotechnology), and unbound antibodies were removed. In this case, anti-β-actin was used as the antibody to ensure that the amount of proteins loaded into the SDS-PAGE gel is identical. The membrane was reacted again with a secondary antibody, anti-rat IgG (commercially available from Cell signaling Technology) or anti-mouse IgG (commercially available from Santa Cruz Biotechnology). Finally, the antibody bound to the membrane was detected using an ECL Plus system (commercially available from Amersham Life Science). Also, the expression level of Snail with respect to β-actin was analyzed using a Scion image analysis program. Here, when it was assumed that the expression level of the untreated control was 100%, the expression level of the Snail by treatment with the compounds synthesized in the examples was indicated as a percentage (%).

[2] = content 5 mg/1 ml distilled water
[3] = content 10 mg/1 ml distilled water
[4] = content 15 mg/1 ml distilled water
[5] = content 20 mg/1 ml distilled water
[6] = content 25 mg/1 ml distilled water
[7] = content 30 mg/1 ml distilled water

## Cl.N=C(NC(=N)N1CCCC1)Nc1ccc(OC(F)(F)F)c(F)c1 [Example 53, N1-pyrrolidine-N5-(3-fluoro-4-trifluoromethoxy)phenyl biguanide hydrochloride]
HCT116 cells; Homo sapiens, 48 hours
  inhibition at 100 µM: 101%
HCT116 cells; Homo sapiens, HCT-116, 48 h
  GI50: 7.6 µM
AMPKα
  AMPK activation effect at 10 μM (%): 315%
  AMPK activation effect AC150: 5.0 µM
other
  melting point: 278 to 279 °C
[1]; [2]
  Solubility in water (%), hydrochloride salt: 20%

## Cl.N=C(NC(=N)N1CCCCC1)Nc1ccc(C(F)(F)F)c(F)c1 [Example 49, N1-piperidine-N5-(3-fluoro-4-trifluoromethyl)phenyl biguanide hydrochloride]
HCT116 cells; Homo sapiens, 48 hours
  inhibition at 100 µM: 96.5%
HCT116 cells; Homo sapiens, HCT-116, 48 h
  GI50: 5.2 µM
AMPKα
  AMPK activation effect at 10 μM (%): 258%
  AMPK activation effect AC150: 2.7 µM
other
  melting point: 263 to 264 °C
[1]; [2]
  Solubility in water (%), hydrochloride salt: 20%

## N=C(NC(=N)N1CCCC1)Nc1ccc(OC(F)(F)F)c(F)c1 [Example 76, N1-pyrrolidine-N5-(3-fluoro-4-trifluoromethoxy)phenyl biguanide acetate]
AMPKα
  AMPK activation effect at 10 μM (%): 341%
  AMPK activation effect AC150: 1.3 µM
[1]; [2]
  Solubility in water (%), acetate salt: 100%
[1]; [3]
  Solubility in water (%), acetate salt: 100%
[1]; [4]
  Solubility in water (%), acetate salt: 70%

## N=C(NC(=N)N1CCCCC1)Nc1ccc(C(F)(F)F)c(F)c1 [Example 75, N1-piperidine-N5-(3-fluoro-4-trifluoromethyl)phenyl biguanide acetate]
AMPKα
  AMPK activation effect at 10 μM (%): 710%
  AMPK activation effect AC150: 2.0 µM
[1]; [2]
  Solubility in water (%), acetate salt: 70%

## N=C(NC(=N)N1CCCC1)Nc1ccc(C(F)(F)F)cc1 [Example 70, N1-pyrrolidine-N5-(4-trifluoromethyl)phenyl biguanide acetate]
HCT116 cells; 48 hours
  GI50: 5.2 µM
AMPKα
  AMPK activation effect at 10 μM (%): 554%
  AMPK activation effect AC150: 2.0 µM
[1]; [2]
  Solubility in water (%), acetate salt: 100%
[1]; [3]
  Solubility in water (%), acetate salt: 100%
[1]; [4]
  Solubility in water (%), acetate salt: 100%
[1]; [5]
  Solubility in water (%), acetate salt: 100%
[1]; [6]
  Solubility in water (%), acetate salt: 100%
[1]; [7]
  Solubility in water (%), acetate salt: 50%

## N=C(NC(=N)N1CCCCC1)Nc1ccc(C(F)(F)F)cc1 [Example 71, N1-piperidine-N5-(4-trifluoromethyl)phenyl biguanide acetate]
AMPKα
  AMPK activation effect at 10 μM (%): 313%
  AMPK activation effect AC150: 2.3 µM
[1]; [2]
  Solubility in water (%), acetate salt: 100%
[1]; [3]
  Solubility in water (%), acetate salt: 50%

## N=C(NC(=N)N1CCCCC1)Nc1ccc(OC(F)(F)F)cc1 [Example 73, N1-piperidine-N5-(4-trifluoromethoxy)phenyl biguanide acetate]
AMPKα
  AMPK activation effect at 10 μM (%): 270%
  AMPK activation effect at 50 μM (%): 747%
  AMPK activation effect AC150: 0.3 µM
[1]; [2]
  Solubility in water (%), acetate salt: 100%
[1]; [3]
  Solubility in water (%), acetate salt: 100%
[1]; [4]
  Solubility in water (%), acetate salt: 100%
[1]; [5]
  Solubility in water (%), acetate salt: 20%

## N=C(NC(=N)N1CCCC1)Nc1ccc(OC(F)(F)F)cc1 [Example 72, N1-pyrrolidine-N5-(4-trifluoromethoxy)phenyl biguanide acetate]
AMPKα
  AMPK activation effect at 10 μM (%): 186%
  AMPK activation effect at 50 μM (%): 938%
  AMPK activation effect AC150: 4.6 µM
[1]; [2]
  Solubility in water (%), acetate salt: 100%
[1]; [3]
  Solubility in water (%), acetate salt: 100%
[1]; [4]
  Solubility in water (%), acetate salt: 100%
[1]; [5]
  Solubility in water (%), acetate salt: 100%
[1]; [6]
  Solubility in water (%), acetate salt: 100%
[1]; [7]
  Solubility in water (%), acetate salt: 50%

## Cl.N=C(NC(=N)N1CCCC1)Nc1ccc(OC(F)(F)F)cc1 [Example 32, N1-pyrrolidine-N5-(4-trifluoromethoxy)phenyl biguanide hydrochloride]
HCT116 cells; Homo sapiens, 48 hours
  inhibition at 100 µM: 97.6%
HCT116 cells; Homo sapiens, HCT-116, 48 h
  GI50: 23.6 µM
AMPKα
  AMPK activation effect at 10 μM (%): 204%
  AMPK activation effect at 50 μM (%): 680%
  AMPK activation effect AC150: 5.1 µM
[1]; [2]
  Solubility in water (%), hydrochloride salt: 50%

## Cl.N=C(NC(=N)N1CCCCC1)Nc1ccc(OC(F)(F)F)c(F)c1 [Example 54, N1-piperidine-N5-(3-fluoro-4-trifluoromethoxy)phenyl biguanide hydrochloride]
HCT116 cells; Homo sapiens, 48 hours
  inhibition at 100 µM: 96.4%
HCT116 cells; Homo sapiens, HCT-116, 48 h
  GI50: 4.5 µM
AMPKα
  AMPK activation effect at 10 μM (%): 400%
  AMPK activation effect AC150: 0.5 µM
other
  melting point: 262 to 263 °C
[1]; [2]
  Solubility in water (%), hydrochloride salt: 20%

## CN(C)C(=N)N=C(N)N [Metformin hydrochloride, reference compound]
Snail; 1 mM
  Snail Expression Rate (%): 70.3%
Snail; 10 mM
  Snail Expression Rate (%): 13.6%
HCT116 cells; Homo sapiens, 48 hours
  inhibition at 100 µM: 1.8%
AMPKα
  AMPK activation effect at 50 μM (%): 130.0%
  AMPK activation effect AC150: 188.3 µM

## Cl.N=C(NC(=N)N1CCCC1)Nc1ccc(C(F)(F)F)c(F)c1 [Example 48, N1-pyrrolidine-N5-(3-fluoro-4-trifluoromethyl)phenyl biguanide hydrochloride]
HCT116 cells; Homo sapiens, 48 hours
  inhibition at 100 µM: 101%
HCT116 cells; Homo sapiens, HCT-116, 48 h
  GI50: 9.3 µM
AMPKα
  AMPK activation effect at 10 μM (%): 299%
  AMPK activation effect AC150: 2.5 µM
other
  melting point: 253 to 254 °C
[1]; [2]
  Solubility in water (%), hydrochloride salt: 80%

## Cl.N=C(NC(=N)N1CCCCC1)Nc1ccc(OC(F)(F)F)cc1 [Example 33, N1-piperidine-N5-(4-trifluoromethoxy)phenyl biguanide hydrochloride]
HCT116 cells; Homo sapiens, 48 hours
  inhibition at 100 µM: 97.9%
HCT116 cells; Homo sapiens, HCT-116, 48 h
  GI50: 7.9 µM
AMPKα
  AMPK activation effect at 10 μM (%): 538%
  AMPK activation effect AC150: 1.4 µM
other
  melting point: 277.3 °C
[1]; [2]
  Solubility in water (%), hydrochloride salt: 50%
